Assay results from US8748408B2, “Methods of treatment of mitochondrial disorders” (The Regents of the University of California, priority 1999, dated 2014).

Key:
Format in all cases: in vivo, human
[1] = Tegretol level in patient (Example 4); conditions: both before and after starting triacetyluridine, found subtherapeutic
[2] = tested on: adult with familial history of mitochondrial disease
Description: KL is an adult who first came to the investigator's attention after the diagnosis of their son with mitochondrial disease leading to stroke-like episodes, ataxia, and encephalopathy. Before administration of triacetyluridine, KL suffered with recurrent pyelonephritis, infection-association neutropenia, […] migraines, grand-mal seizures, neurogenic bowel and bladder requiring QID catheterization, biliary […], dysphagia and pc cough, peripheral and autonomic polyneuropathy, painful paresthesias, cardiac conduction disturbances with SVT and tachy-brady syndrome, severe orthostatic hypotension, orthopnea, and poor functional capacity with inability to climb a flight of stairs without stopping to rest, and declining cognitive performance with episodes of clouded sensorium and poor memory that would last hours to days. KL started triacetyluridine at a dose of 0.05 g/kg/d.

[3] = tested on: child with refractory epilepsy and multiple mitochondrial DNA deletion syndrome; test: Administration of triacetyluridine to a subject having multiple mitochondrial DNA deletion syndrome (Example 4); conditions: patient
Description: patient one is a child with refractory epilepsy. As a 5th grader they were able to play little league baseball. […] This disorder produces multiple deleted copies of mitochondrial DNA and can lead to a number of symptoms. SK began deteriorating. They had 2 ICU admissions for crescendo epilepsy, and had 7 changes in their anticonvulsant regimen in the succeeding 4 months. They were having 8-10 grand-mal seizures every night, leaving them postictal for much of the morning. They also developed upper lip automaticity. The patient was initially administered 0.05 g/kg/day of triacetyluridine for one week, followed by 0.16 g/kg/day for 1 week, and then 0.24 g/kg/day.

[4] = tested on: child with MARIAHS syndrome
Description: CMZ is a child with mitochondrial ataxia, recurrent infections, aphasia, hypouricemia/hypomyelination, and seizures ([…] syndrome), cared for […]. Symptoms indicate a primary deficiency in the enzyme dihydroorotate dehydrogenase, the rate-limiting step in de novo pyrimidine synthesis, which could lead to a functional dependence on exogenous uridine. […] treatment began with uridine. […] the treating agent was switched to triacetyluridine because it is a more easily absorbed form of uridine.

[5] = tested on: patients with mitochondrial renal tubular acidosis (RTA); test: Treatment of patients with mitochondrial renal tubular acidosis with triacetyluridine (Example 1)
Description: Four patients with mitochondrial renal tubular acidosis (RTA) were studied. Mitochondrial RTAs often defy simple classification as proximal (type II) or distal (type I) tubulopathies, as these patients are often mosaics and express features of both phenotypes leading to hyperchloremic (non-anion gap) metabolic acidosis.
Patient #1 was a person with Leigh syndrome, lactic acidemia, and complex I deficiency who required 200 mEq/day of NaHCO3 to compensate for renal losses of alkali, and maintain serum bicarbonate levels above 20 mEq/l, 1+ proteinuria, and significant aminoaciduria with hydroxyprolinuria.
Patient #2 was a person with Leigh syndrome, and complex IV (COX) deficiency, who also required 200 mEq/day of NaHCO3.
Patient #3 was a person with Leigh syndrome, lactic acidemia, 1+ proteinuria, and pyruvate dehydrogenase (PDH) deficiency, who required up to 210 mEq/day of NaHCO3.
Patient #4 was a person with 3-hydroxyisobutyric aciduria, lactic acidemia, and encephalomyopathy, who required 468 mEq/day of NaHCO3.
Blood and urine electrolytes, creatinine, pH, urinalysis, and venous blood gases were studied before and after treatment. Quantitative urine amino acids and organic acids were also obtained. Pre-enrollment doses of oral sodium bicarbonate were continued for the first 3 days of triacetyluridine treatment, then reduced weekly as tolerated to maintain serum bicarbonate above 20 mEq/1.
Patients received triacetyluridine 2 g/m^2 PO TID.

[6] = tested on: child with Leigh syndrome, lactic acidemia, and renal tubular acidosis; test: Administration of triacetyluridine to a subject having Leigh syndrome (Example 5)
Description: patient two was a child with Leigh syndrome, lactic acidemia, and renal tubular acidosis who suffered a hypertensive crisis and acute edema as they came out of general anesthesia for replacement of an elective percutaneous gastrostomy tube (PEG). […] They developed pneumonia as a complication of PEG and developed new Leigh syndrome lesions in the spinal cord, midbrain, and thalamus. They drifted into a coma 3 days after PEG placement. The person received emergency treatment with triacetyluridine.

[7] = patient three, started at 0.05 g/kg/d
[8] = Patient #1, triacetyluridine 2 g/m^2 PO TID

SMILES: NC(=O)N1c2ccccc2C=Cc2ccccc21 [tegretol]
- tegretol level [1]: 4 µg/mL

SMILES: CC(=O)OC[C@H]1O[C@@H](n2ccc(=O)[nH]c2=O)[C@H](OC(C)=O)[C@@H]1OC(C)=O [triacetyluridine, 2′, 3′, 5′-tri-O-acetyl-1-β-D-uridine]
- cystic breast disease ([2]; human, in vivo): flared slightly
- menstrual cycle ([2]; human, in vivo): returned to normal
- menstrual cycles ([2]; human, in vivo): shortened from every 4 weeks to every 2 weeks
- I&O catheterization required ([2]; patient three (before: QID catheterization), started at 0.05 g/kg/d): 1-2 times a week
- functional capacity ([2]; patient three, after 6 weeks of triacetyluridine): able to walk a full mile
- pain of biliary dyssynergia [2, 7]: gone
- painful paresthesias [2, 7]: gone, although some numbness persists
- seizures and migraine since starting treatment [2, 7]: has not had a seizure or migraine
- sensorium [2, 7]: Her sensorium has cleared
- tachy-brady syndrome [2, 7]: persists
- nocturnal seizure activity ([3]; after increase to 0.24 g/kg/d with 0.5 g calcium pyruvate TID added, transient escalation, then after 3 days): decreased to zero
- seizures and involuntary lip movements ([3]; first three days, 0.05 g/kg/day): stopped completely
- functional outcome ([3]; for several weeks): able to return to school and play little league baseball again
- overall condition and symptomotology (conclusion) ([4]; MARIAHS syndrome patient): dramatic improvement in the patient's condition, and a marked reduction in symptomotology
- toxicity ([4]; human, in vivo): no biochemical, hematologic, or clinical toxicity
- truncal ataxia ([4]; patient four, uridine, then triacetyluridine): Mild truncal ataxia persists
- language and gait ([4]; patient four, within 2 months of a dose increase to 0.2 g/kg/day): rapid increase in expressive language acquisition and a narrowing of their previous broad-based, ataxic gait
- time to complete correction of RTA ([5]; Patient #1 (Leigh syndrome, complex I deficiency), triacetyluridine 2 g/m^2 PO TID): ≤ 24 h
- serum bicarbonate maintained without any further oral bicarbonate [5, 8]: more than 20 mEq/l
- time to complete resolution of hydroxyprolinuria [5, 8]: ≤ 2 weeks
- urinary bicarbonate losses ([5]; Patient #2 (initially 99 mEq/l), after 36 hours on treatment, 2 g/m^2 PO TID): < 5 mEq/l
- share of pre-enrollment dose of bicarbonate needed to maintain normal serum bicarbonate ([5]; Patient #2, after 3 weeks of treatment, 2 g/m^2 PO TID): 25%
- urinary bicarbonate losses ([5]; Patient #3 (59 mEq/l prior to therapy), after 36 hours of treatment, 2 g/m^2 PO TID): < 5 mEq/l
- share of previous dose of bicarbonate required ([5]; Patient #3, after 3 weeks of treatment, 2 g/m^2 PO TID): 10%
- reduction in oral bicarbonate requirement ([5]; Patient #4, following 1 week of treatment, 2 g/m^2 PO TID): 35%
- patients in whom renal tubular acidosis was corrected or dramatically improved ([5]; patients with mitochondrial disease, 2 g/m^2 PO TID): 4 out of 4
- aminoaciduria ([6]; patient two): improved
- need for supplemental bicarbonate ([6]; patient two (before: 25 mEg/kg/day)): did not require any further supplemental bicarbonate
- time to complete resolution of renal tubular acidosis ([6]; patient two, emergency treatment with triacetyluridine): ≤ 12 h
- clinical outcome ([6]; patient two, in coma before treatment): never awoke from their coma, and died after a 4 week terminal illness
- time until plasma amino acids returned to normal ranges ([6]; patient two, while receiving continuous parenteral nutrition): ≤ 2 h

SMILES: O=c1ccn([C@@H]2O[C@H](CO)[C@@H](O)[C@H]2O)c(=O)[nH]1 [uridine, reference compound]
- follow-up brain MRI, white matter disease ([4]; patient four, after 20 months on uridine): no progression in their white matter disease
